# Experimental data as given in patent US10294236B2, “Compounds as rearranged during transfection (RET) inhibitors” (GLAXOSMITHKLINE INTELLECTUAL PROPERTY DEVELOPMENT LIMITED, priority 2014, dated 2019).
# Counter-ions that a name gives are not always drawn.
# Molecular target: T1, Human RET kinase cytoplasmic domain (Homo sapiens, UniProt P07949)
# T1 construct: made in house
# T1 sequence (P07949 658-1114): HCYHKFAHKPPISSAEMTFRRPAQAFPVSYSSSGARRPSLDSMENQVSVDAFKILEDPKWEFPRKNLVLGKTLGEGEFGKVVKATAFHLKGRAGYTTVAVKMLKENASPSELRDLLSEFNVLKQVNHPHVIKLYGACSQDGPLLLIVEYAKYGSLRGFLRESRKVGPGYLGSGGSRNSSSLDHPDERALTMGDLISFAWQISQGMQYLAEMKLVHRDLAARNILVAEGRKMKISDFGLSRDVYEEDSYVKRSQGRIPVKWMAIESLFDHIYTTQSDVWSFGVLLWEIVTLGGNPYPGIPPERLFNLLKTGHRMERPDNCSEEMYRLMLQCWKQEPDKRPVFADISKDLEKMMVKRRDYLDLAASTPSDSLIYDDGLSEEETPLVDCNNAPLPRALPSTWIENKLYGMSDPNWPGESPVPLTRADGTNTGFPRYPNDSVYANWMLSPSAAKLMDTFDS
# Assay: RET kinase enzymatic assay
# Assay type: biochemical
# Summary of the method: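 GST-RET, 0.2 nM in 2× enzyme mix (HEPES, CHAPS, BSA, DTT), preincubated with inhibitor 30 min at 23 °C. Reaction for 1 h at 23 °C after adding 2× substrate mix: 20 μM ATP, 20 mM MgCl2, 1 μM biotinylated peptide. Single wells per concentration; IC50 from sigmoidal dose-response fit.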
row,SMILES,IC50 [nM]
1,CCOc1cc(-c2ccc(NC(=O)Nc3ccc(OC4(C)CN(C)C4)c(C(F)(F)F)c3)c(F)c2)c[nH]c1=O [Example 117],< 100
2,CCOc1cc(=O)[nH]cc1-c1ncc(NC(=O)Nc2ccc(C3(CO)CC3)c(C(F)(F)F)c2)c(C)n1 [Example 88],< 100
3,"CCOc1cc(-c2nc(C)c(NC(=O)Nc3cc(-n4cnc(C)c4)cc(C(F)(F)F)c3)c(C)n2)c[nH]c1=O [Example 53, 1-(2-(5-Ethoxy-6-oxo-1,6-dihydropyridin-3-yl)-4,6-dimethylpyrimidin-5-yl)-3-(3-(4-methyl-1H-imidazol-1-yl)-5-(trifluoromethyl)phenyl)urea]",< 100
4,CCOc1cc(-c2ccc(NC(=O)Nc3cnc(OC(C)C)c(C(F)(F)F)c3)c(F)c2)c[nH]c1=O [Example 92],< 100
5,"CCOc1cc(=O)[nH]cc1-c1ncc(NC(=O)Nc2cc(-c3nnc(C)o3)cc(C(F)(F)F)c2)c(C)n1 [Example 67, 1-(2-(4-Ethoxy-6-oxo-1,6-dihydropyridin-3-yl)-4-methylpyrimidin-5-yl)-3-(3-(5-methyl-1,3,4-oxadiazol-2-yl)-5-(trifluoromethyl)phenyl)urea]",< 100
6,CCCOc1cc(-c2ccc(NC(=O)Nc3ccc(OC4(C)COC4)c(C(F)(F)F)c3)cc2)c[nH]c1=O [Example 131],< 100
7,"CCOc1cc(-c2ccc(NC(=O)Nc3ccc(OC(C)C)c(C(F)F)c3)c(C)n2)c[nH]c1=O [Example 6, 1-(3-(Difluoromethyl)-4-isopropoxyphenyl)-3-(5′-ethoxy-6-methyl-6′-oxo-1′,6′-dihydro-[2,3′-bipyridin]-5-yl)urea]",< 100
8,CCOc1cc(-c2ccc(NC(=O)Nc3ccc(OC4(C)COC4)c(C(F)F)c3)c(F)c2)c[nH]c1=O [Example 93],< 100
9,CCOc1cc(-c2ccc(NC(=O)Nc3cnc(C(C)(C)O)c(C(F)(F)F)c3)c(F)c2)c[nH]c1=O [Example 89],< 100
10,"CCOc1ccc(NC(=O)Nc2ccc(-c3c[nH]c(=O)c4c3CCC4)cc2F)cc1C(F)(F)F [Example 3, 1-(4-Ethoxy-3-(trifluoromethyl)phenyl)-3-(2-fluoro-4-(1-oxo-2,5,6,7-tetrahydro-1H-cyclopenta[c]pyridin-4-yl)phenyl)urea]",< 100
11,"CCOc1cc(-c2cnc(NC(=O)Nc3ccc(OC4(C)COC4)c(C(F)(F)F)c3)cc2C)c[nH]c1=O [Example 62, 1-(5′-Ethoxy-4-methyl-6′-oxo-1′,6′-dihydro-[3,3′-bipyridin]-6-yl)-3-(4-((3-methyloxetan-3-yl)oxy)-3-(trifluoromethyl)phenyl)urea]",< 100
12,CCOc1cc(-c2ccc(NC(=O)Nc3ccc(OC4(C)COC4)c(C(F)(F)F)c3)cc2)c[nH]c1=O [Example 140],< 100
13,CCOc1cc(-c2ccc(NC(=O)Nc3ccc(OC4(C)CC(O)C4)c(C(F)(F)F)c3)c(F)c2)c[nH]c1=O (stereo not drawn) [Example 84],< 100
14,"CCOc1cc(-c2ncc(NC(=O)Nc3cc(C(C)(C)C(F)(F)F)on3)c(C)n2)c[nH]c1=O [Example 15, 1-(2-(5-Ethoxy-6-oxo-1,6-dihydropyridin-3-yl)-4-methylpyrimidin-5-yl)-3-(5-(1,1,1-trifluoro-2-methylpropan-2-yl)isoxazol-3-yl)urea]",< 100
15,COc1cc(-c2ccc(NC(=O)Nc3ccc(OC4(C)COC4)c(C(F)(F)F)c3)c(C)n2)c[nH]c1=O [Example 100],< 100
16,"CCOc1cc(-c2cnc(NC(=O)Nc3cc(C(C)(C)C(F)(F)F)on3)c(C)n2)c[nH]c1=O [Example 16, 1-(5-(5-Ethoxy-6-oxo-1,6-dihydropyridin-3-yl)-3-methylpyrazin-2-yl)-3-(5-(1,1,1-trifluoro-2-methylpropan-2-yl)isoxazol-3-yl)urea]",< 100
17,CCOc1cc(-c2ccc(NC(=O)Nc3ccc(OC4(C)COC4)c(C(F)(F)F)c3)c(OC(C)C)n2)c[nH]c1=O [Example 115],500 to 10000
18,"CCOc1cc(-c2ncc(NC(=O)Nc3cccc(C(F)(F)F)c3)c(C)n2)c[nH]c1=O [Example 42, 1-(2-(5-Ethoxy-6-oxo-1,6-dihydropyridin-3-yl)-4-methylpyrimidin-5-yl)-3-(3-(trifluoromethyl)phenyl)urea]",< 100
19,CCOc1cc(-c2ccc(NC(=O)Nc3ccc(OC4(C)COC4)c(C(F)(F)F)c3)cc2F)c[nH]c1=O [Example 133],< 100
20,CCOc1cc(-c2ncc(NC(=O)Nc3ccc(CN4CCCC4)c(C(F)(F)F)c3)c(C)n2)c[nH]c1=O [Example 111],100 to 500
21,"CCOc1cc(-c2ccc(NC(=O)Nc3ccc(CN4CCOCC4)c(C(F)(F)F)c3)c(F)c2)c[nH]c1=O [Example 45, 1-(4-(5-Ethoxy-6-oxo-1,6-dihydropyridin-3-yl)-2-fluorophenyl)-3-(4-(morpholinomethyl)-3-(trifluoromethyl)phenyl)urea]",< 100
22,CCOc1cc(-c2cc(C)c(NC(=O)Nc3ccc(OC4(C)COC4)c(C(F)(F)F)c3)cn2)c[nH]c1=O [Example 97],< 100
23,CCOc1cc(-c2ccc(NC(=O)Nc3ccc(C4(CO)CC4)c(C(F)(F)F)c3)c(F)c2)c[nH]c1=O [Example 77],< 100
24,"CCOc1cc(-c2ncc(NC(=O)Nc3cc(C(F)(F)F)c(CN4CCN(CC)CC4)cc3F)c(C)n2)c[nH]c1=O [Example 32, 1-(2-(5-Ethoxy-6-oxo-1,6-dihydropyridin-3-yl)-4-methylpyrimidin-5-yl)-3-(4-((4-ethylpiperazin-1-yl)methyl)-2-fluoro-5-(trifluoromethyl)phenyl)urea]",< 100
25,CCOc1cc(-c2ccc(NC(=O)Nc3ccc(OC4(C)COC4)c(C(F)(F)F)c3)c(CC)n2)c[nH]c1=O [Example 102],< 100
26,"CCOc1cc(=O)[nH]cc1-c1ncc(NC(=O)Nc2cc(C(C)(C)C(F)(F)F)on2)c(C)n1 [Example 46, 1-(2-(4-Ethoxy-6-oxo-1,6-dihydropyridin-3-yl)-4-methylpyrimidin-5-yl)-3-(5-(1,1,1-trifluoro-2-methylpropan-2-yl)isoxazol-3-yl)urea]",< 100

# Other lines, results leading:
row,IC50 [nM],SMILES
1,< 100,"CCOc1cc(-c2ncc(NC(=O)Nc3cc(OCCN(C)C)cc(C(F)(F)F)c3)cn2)c[nH]c1=O [Example 178, 1-(3-(2-(dimethylamino)ethoxy)-5-(trifluoromethyl)phenyl)-3-(2-(5-ethoxy-6-oxo-1,6-dihydropyridin-3-yl)pyrimidin-5-yl)urea dihydrochloride]"
2,< 100,"CCOc1cc(-c2ncc(NC(=O)Nc3ccc(C(C)N(C)C)c(C(F)(F)F)c3)c(C)n2)c[nH]c1=O (stereo not drawn) [Example 176, 1-(4-(1-(Dimethylamino)ethyl)-3-(trifluoromethyl)phenyl)-3-(2-(5-ethoxy-6-oxo-1,6-dihydropyridin-3-yl)-4-methylpyrimidin-5-yl)urea]"
3,< 100,CCOc1cc(-c2ccc(NC(=O)Nc3ccc(CCN(C)C)c(C(F)(F)F)c3)c(F)c2)c[nH]c1=O [Example 165]
4,< 100,CCOc1cc(F)c(C(F)(F)F)cc1NC(=O)Nc1ccc(-c2c[nH]c(=O)c(OCC)c2)cc1F [Example 153]
5,< 100,CCOc1cc(-c2ccc(NC(=O)Nc3ccc(OC(C)C)c(C(F)F)c3)cc2F)c[nH]c1=O [Example 160]
6,< 100,O=C(Nc1ccc(-c2c[nH]c(=O)c3occc23)cc1F)Nc1cc(C(F)(F)F)ccc1F [Example 155]
7,< 100,CCOc1cc(-c2ccc(NC(=O)Nc3ccc(OCC(C)O)c(C(F)(F)F)c3)c(F)c2)c[nH]c1=O (stereo not drawn) [Example 145]
8,< 100,"CCOc1cc(-c2ncc(NC(=O)Nc3ccc(CC(C)(C)N)c(C(F)(F)F)c3)c(C)n2)c[nH]c1=O [Example 185, 1-(4-(2-Amino-2-methylpropyl)-3-(trifluoromethyl)phenyl)-3-(2-(5-ethoxy-6-oxo-1,6-dihydropyridin-3-yl)-4-methylpyrimidin-5-yl)urea]"
9,< 100,CC(C)Oc1ccc(NC(=O)Nc2ccc(-c3ccc(=O)[nH]c3)cc2)cc1C(F)(F)F [Example 163]
10,< 100,"CCOc1cc(-c2ncc(NC(=O)Nc3cc(C(F)(F)F)c(CN4CCN(CCO)CC4)cc3F)c(C)n2)c[nH]c1=O [Example 171, 1-(2-(5-Ethoxy-6-oxo-1,6-dihydropyridin-3-yl)-4-methylpyrimidin-5-yl)-3-(2-fluoro-4-((4-(2-hydroxyethyl)piperazin-1-yl)methyl)-5-(trifluoromethyl)phenyl)urea]"
11,< 100,"CCOc1cc(-c2ncc(NC(=O)Nc3cc(C(F)(F)F)cc(S(=O)(=O)NCCN(C)C)c3)c(C)n2)c[nH]c1=O [Example 174, N-(2-(dimethylamino)ethyl)-3-(3-(2-(5-ethoxy-6-oxo-1,6-dihydropyridin-3-yl)-4-methylpyrimidin-5-yl)ureido)-5-(trifluoromethyl)benzenesulfonamide]"
12,< 100,"CCOc1cc(-c2ncc(NC(=O)Nc3ccc(CCN4CCCC4)c(C(F)(F)F)c3)c(C)n2)c[nH]c1=O [Example 177, 1-(2-(5-Ethoxy-6-oxo-1,6-dihydropyridin-3-yl)-4-methylpyrimidin-5-yl)-3-(4-(2-(pyrrolidin-1-yl)ethyl)-3-(trifluoromethyl)phenyl)urea]"
13,< 100,O=C(Nc1ccc(OCCO)c(C(F)(F)F)c1)Nc1ccc(-c2c[nH]c(=O)c(OC(F)F)c2)cc1F [Example 164]
